{"source": "patent US20090181981A1", "about": "“CRYSTALLINE (R)-2-(4-CYCLOPROPANESULPHONYL-PHENYL)-N-PYRAZIN-2-YL-3-(TETRAHYDROPYRAN-4-YL)-PROPIONAMIDE” (priority 2008, published 2009)", "key": {"[1]": {"assay": "Glass transition temperature / thermal stability of the solid", "format": "physicochemical", "conditions": "as evidenced by low glass transition temperature", "excerpt": "(§1) Glucokinase is important in regulation of plasma glucose levels. It is thought that GK activators increase a body's sensitivity to glucose. Consequently, GK activators are effective in the treatment of hyperglycemia, insulin resistance, and diabetes, particularly in type II diabetes. […] (WO2004/072031) However, amorphous CPTP is not suitable for pharmaceutically elegant drug formulation."}, "[2]": {"assay": "Hygroscopicity and storage at ambient temperature", "format": "physicochemical", "experimental": "as §1\n(§2) Crystalline CPTP has an onset of melting as measured by differential scanning calorimetry of 156° C., which renders it acceptable for standard industrial processes such as milling. […]"}, "Glucokinase (GK) [3]": {"target": "T1, Glucokinase (GK) (Homo sapiens, UniProt P35557)", "T1 sequence (P35557 1-465)": "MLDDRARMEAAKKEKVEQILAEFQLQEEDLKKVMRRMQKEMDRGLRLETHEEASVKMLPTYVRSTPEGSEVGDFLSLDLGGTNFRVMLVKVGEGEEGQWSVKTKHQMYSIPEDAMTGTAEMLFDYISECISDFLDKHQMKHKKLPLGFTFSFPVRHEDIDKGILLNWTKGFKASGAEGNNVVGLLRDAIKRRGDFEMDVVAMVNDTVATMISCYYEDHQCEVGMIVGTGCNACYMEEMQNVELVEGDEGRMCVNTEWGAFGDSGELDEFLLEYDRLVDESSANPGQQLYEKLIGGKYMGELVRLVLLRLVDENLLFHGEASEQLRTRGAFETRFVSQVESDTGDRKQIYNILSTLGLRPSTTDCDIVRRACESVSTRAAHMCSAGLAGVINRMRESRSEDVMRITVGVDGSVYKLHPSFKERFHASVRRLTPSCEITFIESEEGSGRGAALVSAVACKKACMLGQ", "conditions": "WO2004/072031; cited from earlier work"}, "Glucokinase (GK) [4]": {"tested_on": "Glucokinase (GK)", "conditions": "WO2004/072031; cited from earlier work"}, "[5]": {"assay": "pKa by photometric titration", "format": "physicochemical", "conditions": "determined by photometric titration", "excerpt": "Salt formation was also extensively investigated. However, formation of isolable CPTP salts is hampered by the low pK (pKa1=0.17, determined by photometric titration) of CPTP."}, "[6]": {"assay": "Crystalline CPTP stability summary (storage at controlled temperature and relative humidity)", "format": "physicochemical", "conditions": "for Chiral Purity: chiral HPLC area percent; for Achiral Purity: total impurities by achiral HPLC", "experimental": "as §2"}, "[7]": {"conditions": "25° C. 60% relative humidity, 1 month"}, "[8]": {"conditions": "25° C. 60% relative humidity, 3 months"}, "[9]": {"conditions": "25° C. 60% relative humidity, Initial"}, "[10]": {"conditions": "40° C. 60% relative humidity, 1 Month"}, "[11]": {"conditions": "40° C. 60% relative humidity, 3 Months"}, "[12]": {"conditions": "40° C. 60% relative humidity, Initial"}}, "data": [{"smiles": "O=C(Nc1cnccn1)[C@H](CC1CCOCC1)c1ccc(S(=O)(=O)C2CC2)cc1", "note": "[Amorphous CPTP, R-2-(4-cyclopropanesulfonyl-phenyl)-N-pyrazin-2-yl-3-(tetrahydropyran-4-yl)-propionamide]", "values": [{"measurement": "thermal stability", "setting": "[1]", "result": "limited thermal stability"}, {"measurement": "hygroscopicity", "setting": "[2]", "result": "is hygroscopic"}, {"measurement": "activity in in-vitro GK assay", "setting": "Glucokinase (GK) [3]", "result": "active"}, {"measurement": "activity in in-vivo GK assay", "setting": "Glucokinase (GK) [4]", "result": "active"}]}, {"smiles": "O=C(Nc1cnccn1)[C@H](CC1CCOCC1)c1ccc(S(=O)(=O)C2CC2)cc1", "note": "[CPTP, R-2-(4-cyclopropanesulfonyl-phenyl)-N-pyrazin-2-yl-3-(tetrahydropyran-4-yl)-propionamide]", "values": [{"measurement": "pKa1", "setting": "[5]", "result": 0.17}]}, {"smiles": "O=C(Nc1cnccn1)[C@H](CC1CCOCC1)c1ccc(S(=O)(=O)C2CC2)cc1", "note": "[Crystalline CPTP, R-2-(4-cyclopropanesulphonyl-phenyl)-N-pyrazin-2-yl-3-(tetrahydropyran-4-yl)-propionamide]", "values": [{"measurement": "degradation on storage", "setting": "[2]; stored at ambient temperature", "result": "minor or no degradation"}, {"measurement": "hygroscopicity / water uptake", "setting": "[2]; stored at ambient temperature", "result": "remains anhydrous and is not hygroscopic"}, {"measurement": "Appearance", "setting": "[6]; [7]", "result": "White"}, {"measurement": "Assay", "setting": "[6]; [7]", "result": 99.9, "unit": "% w/w"}, {"measurement": "Total Impurities", "setting": "[6]; [7]", "result": 0.18, "unit": "%"}, {"measurement": "Water", "setting": "[6]; [7]", "result": "<0.10", "unit": "% w/w"}, {"measurement": "Appearance", "setting": "[6]; [8]", "result": "White"}, {"measurement": "Assay", "setting": "[6]; [8]", "result": 99.6, "unit": "% w/w"}, {"measurement": "Total Impurities", "setting": "[6]; [8]", "result": 0.23, "unit": "%"}, {"measurement": "Water", "setting": "[6]; [8]", "result": "<0.01", "unit": "% w/w"}, {"measurement": "Appearance", "setting": "[6]; [9]", "result": "White"}, {"measurement": "Assay", "setting": "[6]; [9]", "result": 100.3, "unit": "% w/w"}, {"measurement": "Total Impurities", "setting": "[6]; [9]", "result": 0.25, "unit": "%"}, {"measurement": "Water", "setting": "[6]; [9]", "result": "<0.07", "unit": "% w/w"}, {"measurement": "Appearance", "setting": "[6]; [10]", "result": "White"}, {"measurement": "Assay", "setting": "[6]; [10]", "result": 100.1, "unit": "% w/w"}, {"measurement": "Total Impurities", "setting": "[6]; [10]", "result": 0.2, "unit": "%"}, {"measurement": "Water", "setting": "[6]; [10]", "result": "<0.10", "unit": "% w/w"}, {"measurement": "Appearance", "setting": "[6]; [11]", "result": "White"}, {"measurement": "Assay", "setting": "[6]; [11]", "result": 99.3, "unit": "% w/w"}, {"measurement": "Total Impurities", "setting": "[6]; [11]", "result": 0.25, "unit": "%"}, {"measurement": "Water", "setting": "[6]; [11]", "result": "<0.01", "unit": "% w/w"}, {"measurement": "Appearance", "setting": "[6]; [12]", "result": "White"}, {"measurement": "Assay", "setting": "[6]; [12]", "result": 100.3, "unit": "% w/w"}, {"measurement": "Total Impurities", "setting": "[6]; [12]", "result": 0.25, "unit": "%"}, {"measurement": "Water", "setting": "[6]; [12]", "result": "<0.07", "unit": "% w/w"}, {"measurement": "Chiral Purity", "setting": "[6]; [7]", "result": 100, "unit": "% a/a"}, {"measurement": "Chiral Purity", "setting": "[6]; [8]", "result": 100, "unit": "% a/a"}, {"measurement": "Chiral Purity", "setting": "[6]; [9]", "result": 100, "unit": "% a/a"}, {"measurement": "Chiral Purity", "setting": "[6]; [10]", "result": 100, "unit": "% a/a"}, {"measurement": "Chiral Purity", "setting": "[6]; [11]", "result": 100, "unit": "% a/a"}, {"measurement": "Chiral Purity", "setting": "[6]; [12]", "result": 100, "unit": "% a/a"}, {"measurement": "Achiral Purity", "setting": "[6]; [7]", "result": 0.18, "unit": "% a/a"}, {"measurement": "Achiral Purity", "setting": "[6]; [8]", "result": 0.23, "unit": "% a/a"}, {"measurement": "Achiral Purity", "setting": "[6]; [9]", "result": 0.25, "unit": "% a/a"}, {"measurement": "Achiral Purity", "setting": "[6]; [10]", "result": 0.20, "unit": "% a/a"}, {"measurement": "Achiral Purity", "setting": "[6]; [11]", "result": 0.25, "unit": "% a/a"}, {"measurement": "Achiral Purity", "setting": "[6]; [12]", "result": 0.25, "unit": "% a/a"}]}]}
